Test results: patent publication US20120214802A1, “PYRROLIDINE COMPOUNDS WHICH INHIBIT BETA-SECRETASE ACTIVITY AND METHODS OF USE THEREOF” (priority 2009, published 2012)

Legend:
memapsin 2 [1] = target: memapsin 2 (Homo sapiens, UniProt P56817); assay: Inhibition of memapsin 2 beta-secretase activity (fluorogenic substrate FS-2); assay type: biochemical; conditions: pH 4, 37° C., read-out: M2 Ki
Description: Potency of compounds were determined by measurement of their inhibition of memapsin 2 activity toward a fluorescent substrate. Kinetic inhibition experiments were performed using the procedure as described in Ermolieff, et al. (Biochemistry 39:12450-12456 (2000), the teachings of which are incorporated hereby in their entirety). Briefly, assays were performed at pH 4, 37° C., by pre-incubation of memapsin 2 enzyme with compound for 20 minutes. Activity measurements were initiated by addition of a fluorogenic substrate FS-2 (Bachem Americas, Torrance, Calif.) MCA-SEVNLDAEFR-DNP (SEQ ID NO.: 2). The substrate was derived from 10 amino acids of the human amyloid precursor protein (APP), with the Swedish variant amino acids at the beta-secretase cleavage site. The terminal amino acid was modified from arginine to lysine to facilitate derivatization with a functional group for detection by autofluorescence. The amino acid sequence of the “core” peptide of the substrate is SEVNLDAEFK (SEQ ID NO.: 3). The amino terminus was derivatized with (7-methoxycoumarin-4-yl)acetyl (MCA), and the epsilon amine of the lysine side chain of the terminal residue (K in sequence SEVNLDAEFK (SEQ ID NO.: 3)) was derivatized with 2,4-dinitorphenyl (DNP).

memapsin 2 [2] = target: T1, memapsin 2 (Cricetulus griseus, UniProt G3IAK4); assay: Cellular Aβ IC50 determination (Aβ40 sandwich ELISA); assay type: cell-based, Chinese hamster; conditions: CHO cells over-expressing human APP695 with London and Swedish mutations, 24 h, read-out: M2 IC50
T1 construct: endogenous in cells; host or cells: Chinese hamster ovary cells over-expressing human APP695 (London + Swedish)
Description: The potency of compounds against memapsin 2 activity was determined in a cellular assay of Aβ production. […] Chinese hamster ovary cells that over-express human APP695 with the London and Swedish mutations were seeded in multi-well plates at 10% confluency. Compounds are dissolved in DMSO to concentrations near 1 mM, and diluted into culture media to a final concentration near 4 μM (final 0.4% DMSO). Compounds were diluted serially and applied to cells in multi-well plates 48 h after seeding. Incubation was continued in 5% CO2 at 37° C. for 24 h. Aliquots were removed and assayed for […] using a sandwich ELISA (BioSource International). Amount of Aβ40 over the range of concentration of compounds, relative to control incubations, were fit to a 4-parameter IC50 model.

memapsin 2 (Homo sapiens, UniProt P56817), sequence (P56817 46-501): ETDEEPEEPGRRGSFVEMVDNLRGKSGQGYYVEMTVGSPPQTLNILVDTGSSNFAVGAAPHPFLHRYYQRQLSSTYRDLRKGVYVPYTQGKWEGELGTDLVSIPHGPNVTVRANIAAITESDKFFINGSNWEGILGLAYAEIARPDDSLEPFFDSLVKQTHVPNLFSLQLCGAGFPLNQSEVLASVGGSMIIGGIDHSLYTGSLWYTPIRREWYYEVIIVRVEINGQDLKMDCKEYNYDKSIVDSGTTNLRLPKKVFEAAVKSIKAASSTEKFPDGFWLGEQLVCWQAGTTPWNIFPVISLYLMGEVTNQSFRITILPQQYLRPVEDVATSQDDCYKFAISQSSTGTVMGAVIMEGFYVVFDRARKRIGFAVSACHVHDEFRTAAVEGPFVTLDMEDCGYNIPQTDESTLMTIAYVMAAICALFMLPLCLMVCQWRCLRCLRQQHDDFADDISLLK
T1 sequence (G3IAK4 22-501): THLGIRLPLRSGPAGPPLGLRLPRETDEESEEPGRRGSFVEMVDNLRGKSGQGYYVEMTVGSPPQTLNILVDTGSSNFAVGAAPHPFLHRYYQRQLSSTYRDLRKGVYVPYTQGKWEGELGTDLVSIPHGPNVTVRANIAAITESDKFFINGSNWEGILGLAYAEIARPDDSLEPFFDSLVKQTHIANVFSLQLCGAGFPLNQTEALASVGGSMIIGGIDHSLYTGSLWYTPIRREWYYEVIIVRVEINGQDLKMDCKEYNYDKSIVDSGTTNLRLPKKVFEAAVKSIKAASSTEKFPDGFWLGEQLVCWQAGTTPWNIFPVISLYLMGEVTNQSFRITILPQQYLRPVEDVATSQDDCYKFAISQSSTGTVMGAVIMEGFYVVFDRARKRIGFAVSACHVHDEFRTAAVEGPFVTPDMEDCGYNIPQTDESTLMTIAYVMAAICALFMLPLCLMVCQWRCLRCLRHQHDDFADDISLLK

| Ki (memapsin 2 [1]) [nM] | IC50 (memapsin 2 [2]) [nM] | Compound |
| --- | --- | --- |
| > 750 | > 1000 | Cc1csc([C@H]2CCCN2C(=O)c2cccc(C(=O)N[C@@H](Cc3ccccc3)[C@H](O)[C@H]3CC[C@@H](C)N3)c2)n1 [1-51, N-((1R,2S)-1-hydroxy-1-((2R,5R)-5-methylpyrrolidin-2-yl)-3-phenylpropan-2-yl)-3-((R)-2-(4-methylthiazol-2-yl)pyrrolidine-1-carbonyl)benzamide] |
| < 250 | < 500 | Cc1coc([C@H]2CCCN2C(=O)c2cc(C(=O)N[C@@H](Cc3ccccc3)[C@H](O)[C@H]3CCCN3)cc(-c3cnccn3)c2)n1 [1-21, N-((1R,2S)-1-hydroxy-3-phenyl-1-((R)-pyrrolidin-2-yl)propan-2-yl)-3-((R)-2-(4-methyloxazol-2-yl)pyrrolidine-1-carbonyl)-5-(pyrazin-2-yl)benzamide] |
| 250 to 750 | > 1000 | Cc1coc([C@H]2CCCN2C(=O)c2cccc(C(=O)N[C@@H](Cc3ccccc3)[C@H](O)[C@H]3CCCN3)c2)n1 [1-4, N-((1R,2S)-1-hydroxy-3-phenyl-1-((R)-pyrrolidin-2-yl)propan-2-yl)-3-((R)-2-(4-methyloxazol-2-yl)pyrrolidine-1-carbonyl)benzamide] |
| > 750 | > 1000 | Cc1cc(C(=O)N[C@@H](Cc2ccccc2)[C@H](O)[C@H]2CCCN2C(=O)OC(C)(C)C)cc(C(=O)N2CCC[C@@H]2c2nc(C)co2)c1 [1-6, (R)-tert-butyl 2-((1S,2S)-1-hydroxy-2-(3-methyl-5-((R)-2-(4-methyloxazol-2-yl)pyrrolidine-1-carbonyl)benzamido)-3-phenylpropyl)pyrrolidine-1-carboxylate] |
| < 250 | 500 to 1000 | Cc1csc([C@H]2CCCN2C(=O)c2cccc(C(=O)N[C@@H](Cc3cccc(F)c3)[C@H](O)[C@H]3CCCN3)c2)n1 [1-53, N-((1R,2S)-3-(3-fluorophenyl)-1-hydroxy-1-((R)-pyrrolidin-2-yl)propan-2-yl)-3-((R)-2-(4-methylthiazol-2-yl)pyrrolidine-1-carbonyl)benzamide] |
| > 750 | > 1000 | Cc1csc(CN(C)C(=O)c2cccc(C(=O)N[C@@H](Cc3ccccc3)[C@H](O)[C@H]3CCCN3C(=O)OC(C)(C)C)c2)n1 [1-1, (R)-tert-butyl 2-((1S,2S)-1-hydroxy-2-(3-(methyl((4-methylthiazol-2-yl)methyl)carbamoyl)benzamido)-3-phenylpropyl)pyrrolidine-1-carboxylate] |
| 250 to 750 | > 1000 | Cc1csc(CN(C)C(=O)c2cccc(C(=O)N[C@@H](Cc3ccccc3)[C@H](O)[C@H]3CCCN3)c2)n1 [1-2, N1-((1R,2S)-1-hydroxy-3-phenyl-1-((R)-pyrrolidin-2-yl)propan-2-yl)-N3-methyl-N3-((4-methylthiazol-2-yl)methyl)isophthalamide] |
| 250 to 750 | > 1000 | Cc1csc(CN(C)C(=O)c2cccc(C(=O)N[C@@H](Cc3ccccc3)[C@H](O)[C@H]3C[C@@H](O)CN3)c2)n1 [1-10, N1-((1R,2S)-1-hydroxy-1-((2R,4R)-4-hydroxypyrrolidin-2-yl)-3-phenylpropan-2-yl)-N3-methyl-N3-((4-methylthiazol-2-yl)methyl)isophthalamide] |
| > 750 | > 1000 | Cc1csc([C@H]2CCCN2C(=O)c2cccc(C(=O)N[C@@H](Cc3ccccc3)[C@H](O)[C@@H]3CCCN3)c2)n1 [1-48, N-((1R,2S)-1-hydroxy-3-phenyl-1-((S)-pyrrolidin-2-yl)propan-2-yl)-3-((R)-2-(4-methylthiazol-2-yl)pyrrolidine-1-carbonyl)benzamide] |
| 250 to 750 | 500 to 1000 | Cc1csc([C@H]2CCCN2C(=O)c2cc(C(=O)N[C@@H](Cc3ccccc3)[C@H](O)[C@H]3CCCN3)cc(N3CCC(F)(F)CC3)c2)n1 [1-46, 3-(4,4-difluoropiperidin-1-yl)-N-((1R,2S)-1-hydroxy-3-phenyl-1-((R)-pyrrolidin-2-yl)propan-2-yl)-5-((R)-2-(4-methylthiazol-2-yl)pyrrolidine-1-carbonyl)benzamide] |
| 250 to 750 | > 1000 | Cc1csc([C@H]2CCCN2C(=O)c2cc(C(=O)N[C@@H](Cc3ccccc3)[C@H](O)[C@H]3CCCN3)cc(N(C)C)c2)n1 [1-42, 3-(dimethylamino)-N-((1R,2S)-1-hydroxy-3-phenyl-1-((R)-pyrrolidin-2-yl)propan-2-yl)-5-((R)-2-(4-methylthiazol-2-yl)pyrrolidine-1-carbonyl)benzamide] |
| > 750 | > 1000 | Cc1csc([C@H]2CCCN2C(=O)c2cc(CF)cc(C(=O)N[C@H](Cc3ccccc3)[C@H](O)[C@H]3C[C@@H](OCc4ccccc4)CN3)c2)n1 [1-45, N-((1R,2R)-1-((2R,4R)-4-(benzyloxy)pyrrolidin-2-yl)-1-hydroxy-3-phenylpropan-2-yl)-3-(fluoromethyl)-5-((R)-2-(4-methylthiazol-2-yl)pyrrolidine-1-carbonyl)benzamide] |
| 250 to 750 | > 1000 | Cc1csc([C@H]2CCCN2C(=O)c2cccc(C(=O)N[C@@H](Cc3ccccc3)[C@H](O)[C@H]3C[C@H](F)CN3)c2)n1 [1-47, N-((1R,2S)-1-((2R,4S)-4-fluoropyrrolidin-2-yl)-1-hydroxy-3-phenylpropan-2-yl)-3-((R)-2-(4-methylthiazol-2-yl)pyrrolidine-1-carbonyl)benzamide] |
| < 250 | < 500 | Cc1coc([C@H]2CCCN2C(=O)c2cc(C(=O)N[C@@H](Cc3ccccc3)[C@H](O)[C@H]3CCCN3)cc(-c3ccccn3)c2)n1 [1-24, N-((1R,2S)-1-hydroxy-3-phenyl-1-((R)-pyrrolidin-2-yl)propan-2-yl)-3-((R)-2-(4-methyloxazol-2-yl)pyrrolidine-1-carbonyl)-5-(pyridin-2-yl)benzamide] |
| > 750 |  | Cc1csc([C@H]2CCCN2C(=O)c2cccc(C(=O)N[C@@H](Cc3ccccc3)[C@H](O)[C@H]3CCC(C)(C)N3)c2)n1 [1-67, N-((1R,2S)-1-((R)-5,5-dimethylpyrrolidin-2-yl)-1-hydroxy-3-phenylpropan-2-yl)-3-((R)-2-(4-methylthiazol-2-yl)pyrrolidine-1-carbonyl)benzamide] |
| < 250 | > 1000 | Cc1csc([C@H]2CCCN2C(=O)c2cc(C(=O)N[C@@H](Cc3ccccc3)[C@H](O)[C@H]3CCCN3)cc(C3CC3)c2)n1 [1-50, 3-cyclopropyl-N-((1R,2S)-1-hydroxy-3-phenyl-1-((R)-pyrrolidin-2-yl)propan-2-yl)-5-((R)-2-(4-methylthiazol-2-yl)pyrrolidine-1-carbonyl)benzamide] |
| < 250 |  | Cc1csc([C@H]2CCCN2C(=O)c2cc(C(=O)N[C@@H](Cc3ccccc3)[C@H](O)[C@H]3C[C@H](F)CN3)cc(-c3ncco3)c2)n1 [1-38, N-((1R,2S)-1-((2R,4S)-4-fluoropyrrolidin-2-yl)-1-hydroxy-3-phenylpropan-2-yl)-3-((R)-2-(4-methylthiazol-2-yl)pyrrolidine-1-carbonyl)-5-(oxazol-2-yl)benzamide] |
| 250 to 750 | < 500 | Cc1csc(CN(C)C(=O)c2cc(C(=O)N[C@@H](Cc3ccccc3)[C@H](O)[C@H]3CCCN3)cc(N(C)S(C)(=O)=O)c2)n1 [1-27, N1-((1R,2S)-1-hydroxy-3-phenyl-1-((R)-pyrrolidin-2-yl)propan-2-yl)-N3-methyl-5-(N-methylmethylsulfonamido)-N3-((4-methylthiazol-2-yl)methyl)isophthalamide] |
| > 750 | > 1000 | Cc1csc(CN(C)C(=O)c2cc(C(=O)N[C@@H](Cc3ccccc3)[C@H](O)[C@H]3CCCN3C(=O)OC(C)(C)C)cc(-c3ncco3)c2)n1 [1-7, (R)-tert-butyl 2-((1S,2S)-1-hydroxy-2-(3-(methyl((4-methylthiazol-2-yl)methyl)carbamoyl)-5-(oxazol-2-yl)benzamido)-3-phenylpropyl)pyrrolidine-1-carboxylate] |
| > 750 | > 1000 | C[C@@H](NC(=O)c1cc(C(=O)N[C@@H](Cc2ccccc2)[C@H](O)[C@H]2CCCN2C(=O)OC(C)(C)C)cc(N(C)S(C)(=O)=O)c1)c1ccccc1 [1-5, (R)-tert-butyl 2-((1S,2S)-1-hydroxy-2-(3-(N-methylmethylsulfonamido)-5-((R)-1-phenylethylcarbamoyl)benzamido)-3-phenylpropyl)pyrrolidine-1-carboxylate] |
